Measured values: patent publication US7897369B2, “Isoprenoid wax ester synthases, isoprenoid acyl CoA-synthetases, and uses thereof” (Regents of the University of Minnesota, priority 2007, dated 2011)

Legend:
Format in all cases: biochemical, Marinobacter hydrocarbonoclasticus DSM 8798
[1] = biological target: T1, WS2 (Marinobacter nauticus, UniProt A3RE51); assay: Kinetic WS assay, spectrophotometric (CoA release, DTNB); conditions: both substrates 1 mM; for Acyl-CoA specificity of WS2: hexadecanol as acyl acceptor
Procedure: Assay reactions were preincubated at 37° C. for 5 min before the reactions were started by the addition of enzyme. Heat-denatured enzyme (99° C. for 15 min) was used as a negative control.
Acyl-CoA and fatty/isoprenoid alcohol specificity of WS2 was determined in the same manner as described for the kinetic WS assay with assumed saturating conditions containing both the fatty/isoprenoid alcohol and acyl-CoA substrates at a concentration of 1 mM. Acyl-CoA specificity was measured with hexadecanol as acyl acceptor, whereas palmitoyl-CoA was used as acyl donor to determine alcohol specificity.
A spectrophotometric assay was developed to determine the kinetic properties of WS1 and WS2. […] The specific activities of WS1, WS2, and Acinetobacter WS/DGAT were measured with palmitoyl-CoA and hexadecanol, palmitoyl-CoA and phytol, and phytanoyl-CoA and phytol. Phytanoyl-CoA for these assays was enzymatically synthesized from phytanic acid and CoA using the above-characterized isoprenoid/acyl-CoA synthetase Acs2.

[2] = system: WS1; assay: Coupled enzyme assay, WS substrate profile (TLC); set-up: key to WE formation (spot intensity of wax ester products on TLC), WS1, C10 / WE formation (spot intensity of wax ester products on TLC), WS1, C12 / WE formation (spot intensity of wax ester products on TLC), WS1, C14 / WE formation (spot intensity of wax ester products on TLC), WS1, C16 / WE formation (spot intensity of wax ester products on TLC), WS1, Phytol / WE formation (spot intensity of wax ester products on TLC), WS1, Farnesol: no activity (−); ranging from no activity (−) to most active (+++); ranging from no activity (−) to most active (+++); most active (+++); conditions: 12 h at 37° C., each substrate 250 μM; for WE formation (spot intensity of wax ester products on TLC), WS1, Farnesol: alcohol farnesol; for WE formation (spot intensity of wax ester products on TLC), WS1, Phytol: alcohol phytol; for WE formation (spot intensity of wax ester products on TLC), WS1, C10: fatty alcohol C10; for WE formation (spot intensity of wax ester products on TLC), WS1, C12: fatty alcohol C12; for WE formation (spot intensity of wax ester products on TLC), WS1, C14: fatty alcohol C14; for WE formation (spot intensity of wax ester products on TLC), WS1, C16: fatty alcohol C16
Procedure: (§1) Stock solutions of various substrates were prepared in 50 mM Tris-HCl buffer (pH 8) containing 1% gum arabic, 12.5 μg bovine serum albumin ml^−1, 0.1% taurocholate, and either 100 mM fatty acid, isoprenoid acid, fatty alcohol, or isoprenoid alcohol. Stock solutions were sonicated to disperse the substrates. Substrate profiles of the three WS were tested using coupled enzyme in vitro reactions in which the CoA synthetases Acs1 and Acs2 are added to synthesize the CoA-activated fatty acid phytanic acid substrates from corresponding acid precursors for the WS reactions. Assays were carried out in 500-μl reactions containing in 50 mM Tris-HCl buffer (pH 8.0), 12.5 μl of each acid, and alcohol substrate stock solution (final concentrations of each substrate of 250 μM), 10 mM MgCl2, 10 mM CoASH, 10 mM ATP, 5 mM TCEP, 0.1 U of inorganic pyrophosphatase, 0.25 μg of Acs1 and Acs2 CoA synthetase, and 0.5 μg of WS to be tested. Assays were incubated at 37° C. overnight before thin-layer chromatography (TLC) analysis of the reaction products.
(§2) In vitro WS assay samples were extracted with 500 μl of chloroformmethanol (1:1 [vol/vol]), and extracts were analyzed by TLC with Whatman normal phase silica gel 60 plates and developed using hexane-diethyl ether-acetic acid (90:10:1 [vol/vol/vol]). TLC plates were stained with either iodine vapor or anisaldehyde solution as described earlier (Jork et al., 1990. Thin-layer chromatography reagents and detection methods, vol. 1a. Physical and chemical detection methods: fundamentals, reagents. VHC, Weinheim, Germany). Palmitoyl palmitate and triolein were used as WE and TAG reference compounds, respectively.

[3] = biological target: T1, WS2; assay: Coupled enzyme assay, WS substrate profile (TLC); set-up: key to WE formation (spot intensity of wax ester products on TLC), WS2, C16 / WE formation (spot intensity of wax ester products on TLC), WS2, Phytol / WE formation (spot intensity of wax ester products on TLC), WS2, Farnesol / WE formation (spot intensity of wax ester products on TLC), WS2, C10 / WE formation (spot intensity of wax ester products on TLC), WS2, C12 / WE formation (spot intensity of wax ester products on TLC), WS2, C14: no activity (−); ranging from no activity (−) to most active (+++); ranging from no activity (−) to most active (+++); most active (+++); conditions: 12 h at 37° C., each substrate 250 μM; for WE formation (spot intensity of wax ester products on TLC), WS2, Farnesol: alcohol farnesol; for WE formation (spot intensity of wax ester products on TLC), WS2, Phytol: alcohol phytol; for WE formation (spot intensity of wax ester products on TLC), WS2, C10: fatty alcohol C10; for WE formation (spot intensity of wax ester products on TLC), WS2, C12: fatty alcohol C12; for WE formation (spot intensity of wax ester products on TLC), WS2, C14: fatty alcohol C14; for WE formation (spot intensity of wax ester products on TLC), WS2, C16: fatty alcohol C16
Procedure: as §1, §2

T1 sequence (A3RE51 entry or part of it): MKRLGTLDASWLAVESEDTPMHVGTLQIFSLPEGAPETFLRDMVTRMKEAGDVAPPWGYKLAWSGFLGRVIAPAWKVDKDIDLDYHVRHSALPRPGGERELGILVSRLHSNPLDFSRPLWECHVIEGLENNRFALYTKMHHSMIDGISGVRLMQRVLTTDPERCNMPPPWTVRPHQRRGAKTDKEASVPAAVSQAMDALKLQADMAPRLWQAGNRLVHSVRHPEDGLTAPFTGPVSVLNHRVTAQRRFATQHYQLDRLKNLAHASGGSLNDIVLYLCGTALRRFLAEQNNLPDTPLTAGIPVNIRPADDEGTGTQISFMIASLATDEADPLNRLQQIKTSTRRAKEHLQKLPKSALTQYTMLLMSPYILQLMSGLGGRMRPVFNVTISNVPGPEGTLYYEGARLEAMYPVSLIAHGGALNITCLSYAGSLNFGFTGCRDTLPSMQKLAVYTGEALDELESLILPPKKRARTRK

| SMILES | Acyl-CoA specificity of WS2 [1] | WE formation (spot intensity of wax ester products on TLC), WS1, Farnesol [2] | WE formation (spot intensity of wax ester products on TLC), WS1, Phytol [2] | WE formation (spot intensity of wax ester products on TLC), WS1, C10 [2] | WE formation (spot intensity of wax ester products on TLC), WS1, C12 [2] | WE formation (spot intensity of wax ester products on TLC), WS1, C14 [2] | WE formation (spot intensity of wax ester products on TLC), WS1, C16 [2] | WE formation (spot intensity of wax ester products on TLC), WS2, Farnesol [3] | WE formation (spot intensity of wax ester products on TLC), WS2, Phytol [3] | WE formation (spot intensity of wax ester products on TLC), WS2, C10 [3] | WE formation (spot intensity of wax ester products on TLC), WS2, C12 [3] | WE formation (spot intensity of wax ester products on TLC), WS2, C14 [3] | WE formation (spot intensity of wax ester products on TLC), WS2, C16 [3] | Fatty/isoprenoid alcohol specificity of WS2 ([1]; palmitoyl-CoA as acyl donor) |
| --- | --- | --- | --- | --- | --- | --- | --- | --- | --- | --- | --- | --- | --- | --- |
| CCCCCCCCCCCCCCCCCC(=O)SCCNC(=O)CCNC(=O)[C@H](O)C(C)(C)COP(=O)(O)OP(=O)(O)OC[C@H]1O[C@@H](n2cnc3c(N)ncnc32)[C@H](O)[C@@H]1OP(=O)(O)O [stearoyl-CoA, stearoyl-CoA (C18:0)] | readily accepted |  |  |  |  |  |  |  |  |  |  |  |  |  |
| CC/C=C\C/C=C\C/C=C\CCCCCCCC(=O)O [C18Δcis9, 12, 15] |  | + | − | − | + | + | − | − | + | + | + | + | + |  |
| CCCCCCCCCCCCCC(=O)SCCNC(=O)CCNC(=O)[C@H](O)C(C)(C)COP(=O)(O)OP(=O)(O)OC[C@H]1O[C@@H](n2cnc3c(N)ncnc32)[C@H](O)[C@@H]1OP(=O)(O)O [myristoyl-CoA, myristoyl-CoA (C14:0)] | poorly converted |  |  |  |  |  |  |  |  |  |  |  |  |  |
| CCCCCC/C=C\CCCCCCCC(=O)O [C16Δcis9] |  | ++ | +++ | + | ++ | ++ | ++ | ++ | ++ | ++ | ++ | +++ | +++ |  |
| CCCCCCCCCCO [Decanol] |  |  |  |  |  |  |  |  |  |  |  |  |  | more readily taken up for WE synthesis than the equivalent-chain-length acyl-CoA carbon chain |
| CCCCCCCCCCCC(=O)SCCNC(=O)CCNC(=O)[C@H](O)C(C)(C)COP(=O)(O)OP(=O)(O)OC[C@H]1O[C@@H](n2cnc3c(N)ncnc32)[C@H](O)[C@@H]1OP(=O)(O)O [lauroyl-CoA, lauroyl-CoA (C12)] | not accepted at all |  |  |  |  |  |  |  |  |  |  |  |  |  |
| CCCCCCCCCCCCCC(=O)O [C14] |  | ++ | + | − | − | ++ | + | ++ | + | ++ | + | ++ | + |  |
| CCCCCCCCCCCCCCCCCCCC(=O)O [C20] |  | ++ | ++ | + | + | + | + | + | + | − | − | + | + |  |
| CCCCCCCCCCCC(=O)O [C12] |  | +++ | − | − | + | + | + | ++ | + | + | + | + | + |  |
| CCCCCCCCCC(=O)O [C10] |  | +++ | − | + | + | − | + | + | + | + | + | − | + |  |
| CCCCCCCCCCCCCCCCCC(=O)O [C18] |  | ++ | ++ | ++ | + | ++ | + | ++ | + | + | + | + | + |  |
